Measurements as given in patent US10889554B2, “Excimer forming compounds” (THE GOVERNING COUNCIL OF THE UNIVERSITY OF TORONTO, priority 2013, dated 2021).

Legend:
[1] = test system: pYpY peptide; test: Detection of pY and pYpY peptides with non-pyrene excimer forming derivatives; type: binding; details: for excimer emission peak in response to pYpY peptide in fluorescence emission spectra / peak when pYpY spectra are divided by those of pY or buffer control: 250 μM Zn^2+ triflate complexes, 125 μM peptide, irradiated at 290 nm; for detection limit of pYpY peptide, selectively over pY peptide: 250 μM compound in complex with Zn^2+ (triflate salt), pH 7.5 50 mM HEPES, 10% DMSO
Procedure: Non-pyrene excimer forming derivatives (compounds 4-7) were synthesized and assessed for their ability to sense proximally phosphorylated peptides. All experiments for these derivatives were performed in pH 7.5 50 mM HEPES, 10% DMSO. 125 μM pY and pYpY peptides were combined with 250 μM of compounds 4, 5 and 6 (Zn^2+ triflate complexes), or buffer as background control, and the solution was irradiated at 290 nm and fluorescence emission scan was recorded. […] These peaks indicate that the spike in response to the addition of pYpY corresponds to excimer formation, since 420 nm region corresponds to a roughly 100 nm shift from the monomer emission maximum (approximately at 330 nm).
pY and pYpY peptides were titrated into 250 μM of compound 4 in complex with Zn^2+ (triflate salt) in pH 7.5 50 mM HEPES, 10% DMSO. […] Time-resolved experiments were also conducted, where the delay time prior to acquisition of fluorescence was varied (0, 5, 10, and 15 μs; FIG. 21). In this case, the concentration of compound 4 in complex with Zn^2+ (triflate salt) was constant at 40 μM.
pY and pYpY peptides were also titrated into 250 μM of compound 5 in complex with Zn^2+ (triflate salt) in pH 7.5, 50 mM HEPES, 10% DMSO. The fluorescence emission spectra (FIG. 23) indicate a pYpY-selective enhancement in the excimer region of the fluorophore.

[2] = test system: proximally phosphorylated proteins (α-casein, β-casein and D-α-casein); test: In-solution detection of proteins; type: binding, Bos taurus; details: Zn^2+ (triflate salt) complexes; pH 7.5, 50 mM HEPES, 75 mM NaCl, 20% DMSO
Description: Non-phosphorylated (BSA and lysozyme) and distally phosphorylated negative control proteins (ovalbumin) were used in detection methods for in-solution, on gel and on blot applications. Dephosphorylated α-casein (D-α-casein), β-casein and α-casein served as proximally phosphorylated positive controls (see Table 2). The phosphosites presented in Table 2 were obtained from the PhosphoSitePlus database or a UniProt database.
Various conditions for the detection of proximally phosphorylated proteins and proteins in aqueous solution are shown in Table 3. Proteins were dissolved in a buffer at various concentrations (normally 100 μM to 40 nM), and combined with 40 μM of compound 1 in complex with Zn^2+ (triflate salt) dissolved in the same buffer on a 384 well flat bottom black plate. The mixture was incubated for 20 minutes and fluorescence emission intensity at 476 nm (10-20 nm bandwidth) was measured using a Tecan M1000 microplate reader, upon excitation at 350 nm (5 nm bandwidth) at 400 Hz. The different conditions tested were assessed based on the ratios of signal intensity of positive to negative control analytes and signal intensity in general. Among the parameters assessed in this study and using these specific control proteins, the following conditions were selected for proteins studies: pH 5.5 50 mM NaOAc, 50 mM NaCl, 5% DMSO (see FIG. 27). […] Depending on the number of proximally di-phosphorylated sites, lower detection limits could be achieved by using lower concentration of a sensor.
Using same methods as described in Example 1.1c, Zn^2+ (triflate salt) complexes of compounds 1 (top left), compound 9 (top right), compound 15 (middle left), and compound 14 (middle right) were tested in pH 7.5, 50 mM HEPES, 75 mM NaCl, 20% DMSO (see FIG. 28).
Using same methods as described in Example 14, 40 and 20 μM of Zn^2+ (triflate salt) complexes of compound 1 (top) and compound 12 (bottom) (FIG. 29), were tested in pH 7.5, 50 mM HEPES, 5% DMSO.
Using same methods as described above, 60, 40, 20 and 10 μM of Zn^2+ (triflate salt) complexed with compound 12 (FIG. 30), were titrated with 80-0.04 μM of proteins in pH 7.5, 50 mM HEPES, 5% DMSO.

[3] = target: T1, β-casein (Bos taurus, UniProt P02666); test: On-gel detection of proximally phosphorylated protein using GaCl3 complexes; type: binding
T1 construct: purchased Sigma Aldrich C6905-250MG
T1 sequence (P02666 16-224): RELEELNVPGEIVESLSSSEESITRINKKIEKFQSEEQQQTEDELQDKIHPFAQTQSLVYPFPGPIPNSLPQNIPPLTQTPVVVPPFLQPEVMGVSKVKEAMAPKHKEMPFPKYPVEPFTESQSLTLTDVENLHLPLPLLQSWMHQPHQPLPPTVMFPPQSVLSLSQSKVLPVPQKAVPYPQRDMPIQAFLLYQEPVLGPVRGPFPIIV
Procedure: (§1) Compound 8 was dissolved in 50 mM NaOAc buffer, pH 4.5, 50 mM NaCl, 10% DMSO and combined with 80, 160 or and 240 μM GaCl3 solutions. Each gel contained 4 lanes with equal amounts of BSA, ovalbumin (Ova), β-casein (β-cas) and lysozyme (Lyso) in each lane (left to right: 1, 0.5, 0.25 and 0.125 μg per protein per lane) (see FIG. 37). Gels were stained for 1 h with the sensor solution. Gels were first de-stained with 50 mM NaOAc buffer pH 4.5 for 2 h and then with 50 mM NaOAc buffer pH 4.0 20% acetonitrile for 40 h.
(§2) Compound 8 was dissolved in 100 mM NaOAc buffer, pH 4.5, 150 mM NaCl, 20% propylene glycol and combined with 10 and 15 μM GaCl3 solutions. Each gel contained 4 lanes with equal amounts of BSA, ovalbumin (Ova), β-casein (β-cas) and lysozyme (Lyso) in each lane (FIG. 40) left to right: 1, 0.5, 0.25 and 0.125 μg per protein per lane). Gels were stained for 1.5 h with the sensor solution. Destaining was performed for variable time (specified at the top) with 50 mM NaOAc, pH 4.0, 20% acetonitrile. Gels were rinsed with MiliQ water for 5 min prior to imaging. Images were acquired using ChemiDoc MP, using a 530 nm emission filter and UV trans excitation.
as §1, with “Compound 2” for “Compound 8”, “lane) (FIG. 42).” for “lane) (see FIG. 37).”, “h. […] However with the increased destaining time the intensity of β-casein band relative to other proteins was increasing, resulting in a 6.7-fold higher intensity over the distally phosphorylated protein ovalbumin. Lane containing 1 μg of each protein was analyzed (FIG. 43).” for “h.”
as §2, with “2” for “8”, “45)” for “40)”, “acetonitrile (see FIGS. 45 and 46).” for “acetonitrile.”

In the case of `c1ccc2cc(CN3CCNCCNCCNCC3)ccc2c1` [compound 5, 1-(naphthalen-2-ylmethyl)-1,4,7,10-tetraazacyclododecane], the “excimer emission peak in response to pYpY peptide in fluorescence emission spectra” value (“excimer emission peak in response” for short) [1] is reported as “No distinct peak”, the “peak when pYpY spectra are divided by those of pY or buffer control” value [1] is reported as “distinct peak in the 420 nm region” and the “detection limit of pYpY peptide, selectively over pY peptide” value [1] is reported as “single-digit”.

For `c1ccc(CN(CCCCc2ccc3ccc4cccc5ccc2c3c45)Cc2ccccn2)nc1` [compound 15, 4-(pyren-1-yl)-N,N-bis(pyridin-2-ylmethyl)butan-1-amine], the melting point was 61 to 62 °C and the “efficiency at detecting the proximally phosphorylated proteins” value [2] was “comparable efficiency”.

`c1cc2ccc3ccc(CCCCOCc4cc(CN5CCNCCNCCNCC5)cc(CN5CCNCCNCCNCC5)c4)c4ccc(c1)c2c34` gave a melting point of 55 to 60 °C.

`O=C(CCCc1ccc2ccc3cccc4ccc1c2c34)N1CCNCCNCCNCC1` gave a melting point of 83 to 86 °C.

With `c1ccc(CN(Cc2ccccn2)Cc2ccc3ccc4cccc5ccc2c3c45)nc1` [compound 14, 1-(pyren-1-yl)-N,N-bis(pyridin-2-ylmethyl)methanamine] the melting point was 108 to 112 °C and the “efficiency at detecting the proximally phosphorylated proteins” value [2] was “comparable efficiency”.

With `c1ccc2c(CN3CCNCCNCCNCC3)cccc2c1` [compound 4, 1-(naphthalen-1-ylmethyl)-1,4,7,10-tetraazacyclododecane] the “excimer emission peak in response” value [1] was “No distinct peak”, the “peak when pYpY spectra are divided by those of pY or buffer control” value [1] was “distinct peak in the 420 nm region” and the “detection limit of pYpY peptide, selectively over pY peptide” value [1] was “single-digit”. The “signal selectivity towards pYpY with 15 μs delay time” value ([1]; time-resolved, 40 μM compound in complex with Zn^2+) was “retained”.

For `c1ccc2c(c1)cc(CN1CCNCCNCCNCC1)c1ccccc12` [compound 6, 1-(phenanthren-9-ylmethyl)-1,4,7,10-tetraazacyclododecane], the “excimer emission peak in response” value [1] was “No distinct peak”.

`O=C(Cc1ccc2ccc3cccc4ccc1c2c34)N1CCNCCNCCNCC1` showed a melting point of 75 to 79 °C.

For `O=C(O)CN(CC(=O)O)c1ccccc1OCCOc1cc(NC(=O)c2ccc3ccc4cccc5ccc2c3c45)ccc1N(CC(=O)O)CC(=O)O` [compound 8, 2,2′-((2-(2-(2-(bis(carboxymethyl)amino)-5-(pyrene-1-carboxamido)phenoxy)ethoxy)phenyl)azanediyl)diacetic acid], the “selectivity for β-casein after 2 h destaining” value ([3]; 80 μM compound, 1:1 GaCl3, stained 1 h) was “improved”, the “β-casein over distally phosphorylated ovalbumin” value ([3]; 80 μM compound, 1:1 GaCl3, stained 1 h, 40 h destaining, 1 μg per protein) was 4.5 fold and the “selectivity for β-casein with more than 1:1 equivalent of compound:GaCl3” value ([3]; 50 mM NaOAc pH 4.5, 50 mM NaCl, 10% DMSO, 160 or 240 μM GaCl3) was “did not result in good selectivity”. The “selective staining for β-casein, no destaining” value ([3]; 100 mM NaOAc pH 4.5, 150 mM NaCl, 20% propylene glycol, 1:1 and 1:1.5 compound:GaCl3, stained 1.5 h) was “did not result in selective staining” and the “staining of β-casein band following 16 h destain” value ([3]; 100 mM NaOAc pH 4.5, 150 mM NaCl, 20% propylene glycol, destain 50 mM NaOAc, pH 4.0, 20% acetonitrile) was “most prominently stained band”.
